Measurements published in US5824665A, “Reduction of hair growth” (priority 1997, dated 1998).

Tests used:
[1] = system: flank organ hair growth; assay: Golden Syrian hamster assay (flank organ hair mass after topical treatment); assay type: in vivo; conditions: thirteen applications
Source text: Male intact Golden Syrian hamsters are considered acceptable models for human beard hair growth in that they display oval shaped flank organs, one on each side, each about 8 mm in major diameter, which grow thick black and coarse hair similar to human beard hair. These organs produce hair in response to androgens in the hamster. To evaluate the effectiveness of a composition including a hair growth reducing compound, the flank organs of each of a group of hamsters are depilated by applying a thioglycolate based chemical depilatory (Surgex); alternatively, hair were removed by shaving the flank organs prior to topical treatments. To one organ of each animal 10 μl of vehicle alone once a day is applied, while to the other organ of each animal an equal amount of vehicle containing a hair growth reducing compound is applied. After thirteen applications (one application per day for five days a week), the flank organs are shaved and the amount of recovered hair (hair mass) from each is weighed. Percent-reduction of hair growth is calculated by subtracting the hair mass (mg) value of the test compound treated side from the hair mass value of the vehicle treated side; the delta value obtained is then divided by the hair mass value of the vehicle treated side, and the resultant number is multiplied by 100.
The above-described assay will be referred to herein as the "Golden Syrian hamster" assay. Preferred compositions provide an inhibition in hair growth of at least about 20%, more preferably at least about 40%, and most preferably at least about 60% when tested in the Golden Syrian hamster assay.

[2] = system: hair follicle hexokinase; assay: Hexokinase activity in hair follicle extracts; assay type: biochemical, hamster; conditions: concentration of 1 mM
Procedure: Measurement of the Hexokinase Activity was Performed as Follows
The enzyme hexokinase was extracted from the hamster hair follicles in a buffer containing Tris-HCL (0.25M, pH 8.1), 1.5 mM EDTA and 5.0 mM MgCl2. The extract was prepared in a manner similar to as described above for phosphofructokinase. The following reagents were mixed together and the change in absorbance at 340 nm was monitored to determine enzyme activity--0.5 ml of the Tris buffer, 0.1 ml ATP (5 mM), 0.1 ml phospho(enol)pyruvate and NADH (0.75 mM and 0.2 mM respectively), 0.1 ml of the follicle extract.

[3] = system: hair follicle phosphofructokinase; assay: Phosphofructokinase activity in hair follicle extracts; assay type: biochemical, hamster
Procedure: The activity of two target enzymes (phosphofructokinase and hexokinase) was determined in hair follicle extracts in the presence or absence of select enzyme inhibitors.
Measurement of Phosphofructokinase Activity in Hair Follicle Extracts
Hair follicles from hamster flank organs were excised and an enzyme extract was prepared in a buffered mixture containing 75 mM Tris-HCL, 3 mM MgCl2, and 15 mM (NH4)2 SO4, pH 7.5, using a sonication device. The follicle extracts were passed through a 10,000 molecular weight cut off filter by centrifugation at 12,000 x g. The unfiltered extract was transferred to another filter and a 100 ul aliquot of the magnesium buffer was added. The sample was centrifuged again under similar conditions. This procedure was repeated two additional times.
The washed extract was removed from the insert cup and assayed for phosphofructokinase activity according to the following procedure. The extract was mixed with a solution containing 2.0 ml of the magnesium buffer, 0.1 ml of fructose 6-phosphate (30 mM), 0.1 ml ATP (15 mM), 0.1 ml NADH (1.5 mM), 0.3 ml of mercatopethanol (0.1M), 0.3 ml an auxiliary enzyme mixture made up of aldose (10 units/ml), triosephosphate isomerase (8 units/ml), and α-glycerophosphate dehydrogenae (4 units/ml) in 25 mM Tris-HCI (pH 7.5). […] Change in absorbance at UV 340 nm was used to determine the enzyme activity.

[4] = 10% concentration in vehicle, topical 10 μl once a day, vehicle and pH per compound as in the Table
[5] = 10% concentration in vehicle, topical 10 μl once a day, vs vehicle treated side
[6] = 4.4% concentration, vehicle A pH 7.0, topical
[7] = 15.0% concentration, vehicle G pH 7.0, topical
[8] = 7.5% concentration, vehicle C pH 8.5, topical

Compound | Hair Mass (mg) ± SEM, Treated [1, 4] | % Inhibition (hair growth) [1, 5] [%] | further results
6-Amino-6-deoxy glucose | 0.77 ± .15 mg | 59 ± 6 | inhibition of the hair follicle hexokinase activity [2]: 46%
O=C(O)C1(O)CC1 [1-Hydroxy-1-cyclopropanecarboxylic acid] | 1.80 ± .20 mg | 22 ± 9 | –
O=CC[C@@H](O)[C@H](O)[C@H](O)CO [2-Deoxyglucose] | 0.96 ± .16 mg | 38 ± 7 | –
O=C(O)C(=O)CF [3-Fluoropyruvic acid] | 1.14 ± .09 mg | 40 ± 5 | –
Nc1ncnc2c1ncn2[C@@H]1O[C@H](COC(=O)c2ccc(S(=O)(=O)F)cc2)[C@@H](O)[C@H]1O [5'-p-Flurosuflonylbenzoyl adenosine] | – | – | % Inhibition (hair growth) [1, 6]: 60 ± 3%; Hair Mass (mg) ± SEM, Treated [1, 6]: 0.74 ± .05 mg
O=C[C@H](O)[C@@H](O)[C@H](O)[C@H](S)CO [5-Thio-D-glucose] | 1.32 ± .20 mg | 49 ± 6 | –
CCCCCCCCCCCCCCCCC(C(=O)O)C(O)(CC(=O)O)C(=O)O (centres unmarked) [Argaric acid] | 0.97 ± .14 mg | 52 ± 4 | inhibition of the hair follicle phosphofructokinase activity ([3]; concentration of 0.15 mM): 76%
O=C(O)C(=O)CBr [Bromopyruvic acid] | 1.10 ± .11 mg | 58 ± 6 | –
O=C(O)[C@H](O)COP(=O)(O)O [D(-)3-Phosphoglyceric acid] | 2.27 ± .22 mg | 21 ± 7 | –
O=C(O)c1cc(=O)c2ccccc2[nH]1 [Kynurenic acid] | 0.98 ± .09 mg | 64 ± 4 | –
N[C@@H]1C(O)O[C@H](CO)[C@@H](O)[C@@H]1O (some centres unmarked) [Mannosamine] | 0.71 ± .13 mg | 68 ± 6 | inhibition of the hair follicle hexokinase activity [2]: 100%
CC(=O)N[C@H]1[C@@H](O)[C@H](O)[C@@H](CO)O[C@H]1O [N-Acetyl-β-D-mannosamine] | 0.79 ± .15 mg | 65 ± 7 | inhibition of the hair follicle hexokinase activity [2]: 100%
Cc1ccc(S(=O)(=O)N[C@@H](CCCCN)C(=O)CCl)cc1 [N-α-(p-Tosyl)-L-lysine chloromethyl ketone] | 0.48 ± .11 mg | 81 ± 4 | inhibition of the hair follicle hexokinase activity [2]: 100%
O=C(O)C(=O)Cc1ccccc1 [Phenylpyruvic acid] | 0.92 ± .21 mg | 54 ± 10 | –
O=C(CCc1ccc(O)cc1)c1c(O)cc(O)cc1O [Phloretin] | – | – | % Inhibition (hair growth) [1, 7]: 35 ± 7%; Hair Mass (mg) ± SEM, Treated [1, 7]: 1.34 ± .11 mg
O=C(O)COP(=O)(O)O [Phosphogylcolic acid] | 0.57 ± .09 mg | 66 ± 5 | inhibition of the hair follicle phosphofructokinase activity ([3]; concentration of 0.9 mM): 45%
O=C(O)c1ccc2ccccc2n1 [Quinaldic Acid] | 0.62 ± .08 mg | 69 ± 4 | –
O=C(O)c1cc(O)c2cccc(O)c2n1 [Xanthurenic acid] | – | – | % Inhibition (hair growth) [1, 8]: 59 ± 4%; Hair Mass (mg) ± SEM, Treated [1, 8]: 1.26 ± .13 mg
N#CC(=Cc1ccc(O)cc1)C(=O)O [α-Cyano-4-hydroxycinnamic acid] | 0.87 ± .34 mg | 49 ± 17 | –
